Test results as given in the NIST ThermoML archive (doi:10.1016/j.tca.2012.07.004).
Numbers after ± are expanded uncertainties.

Tests used:
[1] = 101 kPa, Liquid; for mass density: Vibrating tube method; for viscosity: Vibrating wire viscometry; for speed of sound: ultrasonic interferometer
[2] = xn = mol fraction of the nth substance listed; conditions: 101 kPa, Liquid, x2 = 0; for mass density: Vibrating tube method; for viscosity: Vibrating wire viscometry; for speed of sound: ultrasonic interferometer

CN1CCCC1=O [N-methylpyrrolidone]
[1]
Conditions | mass density [kg/m3] | speed of sound [m/s] | viscosity [mPa·s]
298.15 K | 1025.9 ± 0.32 | 1572 ± 20 | 1.66 ± 0.1
303.15 K | 1023.74 ± 0.32 | 1552 ± 20 | 1.49 ± 0.09
308.15 K | 1019.25 ± 0.32 | 1528 ± 20 | 1.39 ± 0.08
313.15 K | 1014.74 ± 0.31 | 1520 ± 20 | 1.31 ± 0.08

CN1CCCC1=O [N-methylpyrrolidone] + CC(=O)[O-].C[NH+](C)C
[2]
Conditions | mass density [kg/m3] | speed of sound [m/s] | viscosity [mPa·s]
298.15 K | 1025.9 ± 0.32 | 1572 ± 20 | 1.66 ± 0.1
303.15 K | 1023.74 ± 0.32 | 1552 ± 20 | 1.49 ± 0.09
308.15 K | 1019.25 ± 0.32 | 1528 ± 20 | 1.39 ± 0.08
313.15 K | 1014.74 ± 0.31 | 1520 ± 20 | 1.31 ± 0.08

CN1CCCC1=O [N-methylpyrrolidone] + CCN(CC)CC.O=P(O)(O)O
[2]
Conditions | mass density [kg/m3] | speed of sound [m/s] | viscosity [mPa·s]
298.15 K | 1025.9 ± 0.32 | 1572 ± 20 | 1.66 ± 0.1
303.15 K | 1023.74 ± 0.32 | 1552 ± 20 | 1.49 ± 0.09
308.15 K | 1019.25 ± 0.32 | 1528 ± 20 | 1.39 ± 0.08
313.15 K | 1014.74 ± 0.31 | 1520 ± 20 | 1.31 ± 0.08

CN1CCCC1=O [N-methylpyrrolidone] + C[NH+](C)C.O=P([O-])(O)O
[2]
Conditions | mass density [kg/m3] | speed of sound [m/s] | viscosity [mPa·s]
298.15 K | 1025.9 ± 0.32 | 1572 ± 20 | 1.66 ± 0.1
303.15 K | 1023.74 ± 0.32 | 1552 ± 20 | 1.49 ± 0.09
308.15 K | 1019.25 ± 0.32 | 1528 ± 20 | 1.39 ± 0.08
313.15 K | 1014.74 ± 0.31 | 1520 ± 20 | 1.31 ± 0.08

CN1CCCC1=O [N-methylpyrrolidone] + C[NH+](C)C.O=S(=O)([O-])O
[2]
Conditions | mass density [kg/m3] | speed of sound [m/s] | viscosity [mPa·s]
298.15 K | 1025.9 ± 0.3 | 1572 ± 20 | 1.66 ± 0.1
303.15 K | 1023.74 ± 0.32 | 1552 ± 20 | 1.49 ± 0.09
308.15 K | 1019.25 ± 0.32 | 1528 ± 20 | 1.39 ± 0.08
313.15 K | 1014.74 ± 0.31 | 1520 ± 20 | 1.31 ± 0.08

CCN(CC)CC.O=P(O)(O)O [triethylammonium dihydrogen phosphate]
[1]
Conditions | mass density [kg/m3] | speed of sound [m/s] | viscosity [mPa·s]
298.15 K | 1125.7 ± 0.43 | 1794 ± 20 | 64.31 ± 3.9
303.15 K | 1124.68 ± 0.43 | 1769 ± 20 | 57.1 ± 3.4
308.15 K | 1123.71 ± 0.42 | 1757 ± 20 | 49.53 ± 3
313.15 K | 1122.37 ± 0.42 | 1730 ± 20 | 38.31 ± 2.3

CC(=O)[O-].C[NH+](C)C [trimethylammonium acetate]
[1]
Conditions | mass density [kg/m3] | speed of sound [m/s] | viscosity [mPa·s]
298.15 K | 1053.85 ± 0.35 | 1544 ± 20 | 2.76 ± 0.17
303.15 K | 1049.87 ± 0.35 | 1514 ± 20 | 2.37 ± 0.14
308.15 K | 1045.81 ± 0.35 | 1508 ± 20 | 2.06 ± 0.12
313.15 K | 1041.7 ± 0.34 | 1490 ± 20 | 1.83 ± 0.11

C[NH+](C)C.O=P([O-])(O)O [trimethylammonium dihydrogen phosphate]
[1]
Conditions | mass density [kg/m3] | speed of sound [m/s] | viscosity [mPa·s]
298.15 K | 1353.61 ± 0.69 | 1672 ± 20 | 7.64 ± 0.46
303.15 K | 1350.62 ± 0.68 | 1660 ± 20 | 6.46 ± 0.39
308.15 K | 1347.59 ± 0.68 | 1661 ± 20 | 5.61 ± 0.34
313.15 K | 1344.53 ± 0.68 | 1664 ± 20 | 5.07 ± 0.31

C[NH+](C)C.O=S(=O)([O-])O [trimethylammonium hydrogen sulfate]
[1]
Conditions | mass density [kg/m3] | speed of sound [m/s] | viscosity [mPa·s]
298.15 K | 1467.58 ± 0.83 | 1564 ± 20 | 5.1 ± 0.31
303.15 K | 1463.56 ± 0.82 | 1560 ± 20 | 4.48 ± 0.27
308.15 K | 1463.5 ± 0.82 | 1556 ± 20 | 3.94 ± 0.24
313.15 K | 1455.63 ± 0.82 | 1552 ± 20 | 3.16 ± 0.19
